In patent US20260285859A1, “BI-CYCLIC PYRIMIDINE COMPOUNDS, METHODS AND USES THEREOF” (Zeno Management, Inc., priority 2023, published 2026):

Assays:
[1] = biological target: T1, PKMYT1 (Homo sapiens, UniProt Q99640); assay: LanthaScreen Eu Kinase Binding Assay, PKMYT1
T1 sequence (Q99640 1-499): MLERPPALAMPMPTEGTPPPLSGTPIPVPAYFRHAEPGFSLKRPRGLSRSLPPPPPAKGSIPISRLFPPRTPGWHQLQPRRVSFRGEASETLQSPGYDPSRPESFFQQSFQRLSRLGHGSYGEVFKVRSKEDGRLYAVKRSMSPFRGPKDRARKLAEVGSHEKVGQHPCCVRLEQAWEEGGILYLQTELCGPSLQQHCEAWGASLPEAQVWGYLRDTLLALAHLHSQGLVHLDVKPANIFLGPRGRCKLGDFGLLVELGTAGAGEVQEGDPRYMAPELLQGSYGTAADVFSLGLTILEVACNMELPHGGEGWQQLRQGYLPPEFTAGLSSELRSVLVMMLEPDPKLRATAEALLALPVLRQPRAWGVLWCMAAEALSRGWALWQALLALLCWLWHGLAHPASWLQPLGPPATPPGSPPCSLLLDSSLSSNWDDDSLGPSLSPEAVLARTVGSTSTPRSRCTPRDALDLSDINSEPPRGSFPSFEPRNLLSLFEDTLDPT
Description: (§1) Binding of the tracer to the kinase is detected using a europium-labeled anti-GST antibody, which binds to the fused tag on the kinase protein. […] Inhibitor binding to the kinase competes with tracer binding, resulting in loss of FRET from the donor/acceptor pairs.
(§2) Kinase/Antibody Mixtures and Tracer are diluted to a 2× and 4× working concentration, respectively in this same buffer. […] 0% displacement (no known inhibitor) and 100% displacement (highest concentration of known inhibitor) controls were included on each plate for maximum and minimum Emission Ratio determination, respectively. Dasatinib was used for both PKMYT1 and WEE1 as the known inhibitor.
(§3) IC50 determination was performed using a non-linear regression, variable slope (four parameter), inhibitor v. response equation (Prism 9.0).

[2] = biological target: WEE1 (Homo sapiens, UniProt P30291); assay: LanthaScreen Eu Kinase Binding Assay, WEE1
WEE1, sequence (P30291 whole entry): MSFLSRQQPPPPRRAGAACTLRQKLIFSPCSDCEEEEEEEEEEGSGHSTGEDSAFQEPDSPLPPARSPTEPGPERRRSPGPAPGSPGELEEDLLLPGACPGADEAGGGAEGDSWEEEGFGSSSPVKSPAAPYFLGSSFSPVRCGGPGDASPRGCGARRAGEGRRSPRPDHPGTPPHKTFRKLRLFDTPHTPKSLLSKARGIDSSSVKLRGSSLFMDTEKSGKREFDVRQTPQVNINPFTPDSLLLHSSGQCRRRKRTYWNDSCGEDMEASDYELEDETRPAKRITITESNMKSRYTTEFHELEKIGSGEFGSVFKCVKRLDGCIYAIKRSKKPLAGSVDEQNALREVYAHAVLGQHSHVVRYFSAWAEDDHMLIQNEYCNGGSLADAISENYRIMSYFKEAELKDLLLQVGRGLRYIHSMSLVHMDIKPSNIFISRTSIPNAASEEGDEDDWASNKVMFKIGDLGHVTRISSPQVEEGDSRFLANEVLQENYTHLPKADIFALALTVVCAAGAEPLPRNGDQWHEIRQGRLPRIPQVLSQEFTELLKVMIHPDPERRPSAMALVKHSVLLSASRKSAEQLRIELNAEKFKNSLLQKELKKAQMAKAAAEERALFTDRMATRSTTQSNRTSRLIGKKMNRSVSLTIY
Description: as §1, §2, §3

| IC50 [1] [nM] | IC50 [2] [nM] | SMILES |
| --- | --- | --- |
| < 10 | > 1000 | Cc1ccc(O)c(C)c1-c1nc(N2CCOCC2)cc2c(N)ncnc12 (single isomer, unassigned) [Compound 7-B] |
| < 10 | 100 to 1000 | Cc1ccc(O)c(C)c1-c1nc(C2=CCOCC2)cc2c(N)ncnc12 (single isomer, unassigned) [Compound 56-B] |
| < 10 | > 1000 | Cc1ccc(O)c(C)c1-c1nc(N(C)CCC#N)cc2c(N)ncnc12 (single isomer, unassigned) [Compound 41-B] |
| < 10 | 100 to 1000 | Cc1ccc(O)c(C)c1-c1cc(C2=CCOCC2)nc2c(N)ncnc12 [Compound 71-B, (R)-3-(4-amino-6-(3,6-dihydro-2H-pyran-4-yl)pyrido[3,2-d]pyrimidin-8-yl)-2,4-dimethylphenol] |
| < 10 | 100 to 1000 | Cc1ccc(O)c(C)c1-c1nc(-c2ccc(F)cc2F)cc2c(N)ncnc12 (single isomer, unassigned) [Compound 31-B] |
| < 10 | > 1000 | Cc1ccc(O)c(C)c1-c1nc(N(C)C)cc2c(N)ncnc12 (single isomer, unassigned) [Compound 10-B] |
| 10 to 100 | > 1000 | CC[C@H](C)N(C)c1cc2c(N)ncnc2c(-c2c(C)ccc(O)c2C)n1 (single isomer, unassigned) [Compound 45-B] |
| 10 to 100 | > 1000 | COc1cc2c(N)ncnc2c(-c2c(C)ccc(O)c2C)n1 (single isomer, unassigned) [Compound 49-B] |
| 10 to 100 | > 1000 | Cc1ccc(O)c(C)c1-c1nc(NS(C)(=O)=O)cc2c(N)ncnc12 (single isomer, unassigned) [Compound 16-B] |
| < 10 | > 1000 | [2H]C([2H])([2H])N(c1cc2c(N)ncnc2c(-c2c(C)ccc(O)c2C)n1)[C@H]1[C@@H]2COC[C@@H]21 [Compound 63-B, 3-((S)-6-(((1R,5S,6r)-3-oxabicyclo[3.1.0]hexan-6-yl)(methyl-d3)amino)-4-aminopyrido[3,4-d]pyrimidin-8-yl)-2,4-dimethylphenol] |
| 100 to 1000 | > 1000 | Cc1ccc(O)c(C)c1-c1nc(CC(=O)N2CCOCC2)cc2c(N)ncnc12 (single isomer, unassigned) [Compound 35-B] |
| 10 to 100 | > 1000 | COC1CN(c2cc3c(N)ncnc3c(-c3c(C)ccc(O)c3C)n2)C1 (single isomer, unassigned) [Compound 26-B] |
| < 10 | > 1000 | Cc1ccc(O)c(C)c1-c1nc(N2CCCC2=O)cc2c(N)ncnc12 (single isomer, unassigned) [Compound 43-B] |
| < 10 | > 1000 | CO[C@H]1C[C@@H](N(C)c2cc3c(N)ncnc3c(-c3c(C)ccc(O)c3C)n2)C1 [Compound 62-B, 3-((S)-4-amino-6-(((1s,3R)-3-methoxycyclobutyl)(methyl)amino)pyrido[3,4-d]pyrimidin-8-yl)-2,4-dimethylphenol] |
| 10 to 100 | > 1000 | Cc1cc(-c2c(C)ccc(O)c2C)c2ncnc(N)c2c1 (single isomer, unassigned) [Compound 53-B] |
| 10 to 100 | > 1000 | Cc1ccc(O)c(C)c1-c1nc(N=S(C)(C)=O)cc2c(N)ncnc12 (single isomer, unassigned) [Compound 8-B] |
| < 10 | 100 to 1000 | Cc1ccc(O)c(C)c1-c1nc(N(C)C2CC2)cc2c(N)ncnc12 (single isomer, unassigned) [Compound 21-B] |
| < 10 | > 1000 | Cc1ccc(O)c(C)c1-c1cc(C2CC2)nc2c(N)ncnc12 [Compound 76-B, (R)-3-(4-amino-6-cyclopropylpyrido[3,2-d]pyrimidin-8-yl)-2,4-dimethylphenol] |
| < 10 | > 1000 | COC[C@H]1CCN(c2cc3c(N)ncnc3c(-c3c(C)ccc(O)c3C)n2)C1 (single isomer, unassigned) [Compound 23-B] |
